Like-named read-outs stand apart in the source and are kept apart here.
Legend:
[1] = for 1/τ (inverse time constant of drug distribution and equilibration) / tD (delay): mean ± SD, five piglets
Description: Five neonatal Yorkshire Duroc piglets of 10+/−3 d of age weighting 2.4+/−0.6 kg were pre-anesthetized with ketamine (33 mg/kg) and atropine (0.05 mg/kg), intubated, and anesthetized using 1.5-3.0% isoflurane while mechanically ventilated. Core body temperature was kept at 38+/−0.5° C. BP, HR, arterial O2 saturation, end-tidal CO2, fraction of inspired O2, and pulmonary compliance were continuously monitored. HR beyond 250 bpm was captured using the PC-Vet wireless ECG system or direct counting. The animals received intravenous heparin (200 units/kg/h), physiologic saline (10 mL/kg/h), and 10 g/dL of dextrose-water to adjust serum glucose levels using Genie Plus syringe pumps validated for stability of infusion rate. Serum electrolytes, base excess (−6 to +6), pH (7.20-7.45), partial arterial O2 pressure (80-120 mmHg) and partial arterial CO2 pressure (35-45 mmHg), and arterial O2 saturation (90-100%) were maintained in the target ranges using sodium bicarbonate, potassium chloride, lactated Ringer's solution, and ventilatory changes, respectively. Both femoral veins and left femoral artery were cannulated for fluid and drug administration, and arterial BP measurements and blood sampling, respectively. […] The baseline measurements were recorded after a 15-min postsurgical stabilization period, followed by the escalation of dose, and a 15-min washout period after the discontinuation of the medication. […] To deduce the rate of change of the hemodynamic parameters, the data obtained were subdivided into baseline, low dose (0.25 mcg/kg/min), medium dose (0.5 and 0.75 mcg/kg/min) and high dose (1, 1.5 and 2 mcg/kg/min). BP and HR were collected in real time at a sampling rate of 0.2 Hz.

[2] = range across four pooled subject groups, cited from earlier work

SMILES: CNC[C@H](O)c1ccc(O)c(O)c1 [epinephrine]
- 1/τ (inverse time constant of drug distribution and equilibration) ([1]; X = H (HR)): 4.1e−3 ± 4.5e−3
- tD (delay) ([1]; X = R (TPR)): 48.6 ± 17.6 s
- 1/τ (inverse time constant of drug distribution and equilibration) ([1]; X = δV (SV)): 0.01 ± 0.02
- tD (delay) ([1]; X = δV (SV)): 29.1 ± 26.1 s
- HR increase as share of its maximum response ([1]; after the first dose escalation (0.25 mcg/kg/min), averaged over five piglets): 55%
- HR at which the response starts to saturate ([1]; doses of 1-2 mcg/kg/min, one particular piglet): around 400 bpm
- MAP response ([1]; from the low-dose range, averaged over five piglets (FIG. 10)): persistently increases
- DBP ([2]; epinephrine 020 ng/kg/min): 69-88 mmHg
- HR ([2]; epinephrine 020 ng/kg/min): 64-69 bpm
- MAP ([2]; epinephrine 020 ng/kg/min): 83-110 mmHg
- SBP ([2]; epinephrine 020 ng/kg/min): 112-153 mmHg
- SVI ([2]; epinephrine 020 ng/kg/min): 54-65 ml/m^2
- DBP ([2]; epinephrine 040 ng/kg/min): 66-83 mmHg
- HR ([2]; epinephrine 040 ng/kg/min): 68-73 bpm
- MAP ([2]; epinephrine 040 ng/kg/min): 82-106 mmHg
- SBP ([2]; epinephrine 040 ng/kg/min): 114-153 mmHg
- SVI ([2]; epinephrine 040 ng/kg/min): 55-68 ml/m^2
- DBP ([2]; epinephrine 080 ng/kg/min): 62-79 mmHg
- HR ([2]; epinephrine 080 ng/kg/min): 71-76 bpm
- MAP ([2]; epinephrine 080 ng/kg/min): 83-105 mmHg
- SBP ([2]; epinephrine 080 ng/kg/min): 124-158 mmHg
- SVI ([2]; epinephrine 080 ng/kg/min): 58-71 ml/m^2
- DBP ([2]; epinephrine 120 ng/kg/min): 61-79 mmHg
- HR ([2]; epinephrine 120 ng/kg/min): 72-81 bpm
- MAP ([2]; epinephrine 120 ng/kg/min): 84-109 mmHg
- SBP ([2]; epinephrine 120 ng/kg/min): 132-168 mmHg
- SVI ([2]; epinephrine 120 ng/kg/min): 59-74 ml/m^2
- DBP ([2]; epinephrine 160 ng/kg/min): 61-80 mmHg
- HR ([2]; epinephrine 160 ng/kg/min): 75-79 bpm
- MAP ([2]; epinephrine 160 ng/kg/min): 86-109 mmHg
- SBP ([2]; epinephrine 160 ng/kg/min): 136-170 mmHg
- SVI ([2]; epinephrine 160 ng/kg/min): 59-77 ml/m^2

— US20170235917A1, “SYSTEMS AND METHODS FOR MONITORING AND CONTROLLING A CARD[…] OF A SUBJECT” (THE GENERAL HOSPITAL CORPORATION, priority 2014, published 2017)
